Assay [1] deals with MES-SA-Dx5 doxorubicin resistant. Briefly: p-histone H3 fluorescence-based cell imaging assay. Set-up: species or system human. The following applies: Homo sapiens. As to the method: (§1) All high-content cell assays were performed on an ArrayScan VTi HCS Reader (Cellomics). Tumor cell lines were treated with AMG 900, AZD1152, MK-0457, or PHA-739358 (concentration range varied based on potency). The cells were prepared for intracellular staining with an anti-p-histone H3 Ser^10 antibody as previously described (1). Detection was performed with an anti-rabbit IgG-alexa-568 antibody and DAPI. The cellular levels of p-histone H3 were analyzed using Target Activation V2 algorithm (Cellomics) to determine the percentage of positive cells. For the imaging assays, the concentration-response curves and corresponding IC50 and EC50 values were calculated using the percentage of cells affected versus the DMSO control.

For another assay, the system named is MDA-MB-231 parental. Briefly: p-histone H3 fluorescence-based cell imaging assay. Set-up: species or system human. The settings on record: Homo sapiens, P-gp −. How it is done:
as §1

The test system of assay [2] is NCI-H460 PTX paclitaxel resistant. The experiment in a line: p-histone H3 fluorescence-based cell imaging assay. Set-up: species or system human. The settings on record: Homo sapiens. How it is done: as §1
For assay [3], the system named is MDA-MB-231 PTX paclitaxel resistant. Briefly: p-histone H3 fluorescence-based cell imaging assay. Further details: species or system human. The settings on record: Homo sapiens. As to the method: as §1
In a further assay the test system is NCI-H460 parental. The experiment in a line: p-histone H3 fluorescence-based cell imaging assay. Set-up: species or system human. The settings on record: Homo sapiens, P-gp −. As to the method: as §1
A further assay concerns MES-SA parental. The experiment in a line: p-histone H3 fluorescence-based cell imaging assay. Set-up: species or system human. The following applies: Homo sapiens, P-gp −. How it is done:
as §1

The next assay concerns MDA-MB-231. The experiment in a line: Cell cycle DNA content assay (flow cytometry). Type of assay: cell-based. The settings on record: Homo sapiens, 24 h; MDA-MB-231, Breast, Parent line; read-out: EC50 @ 24 hours, ≧4N DNA content. How it is done: (§2) MDA-MB-231(F11)-luc parent and taxol-resistant cells were seeded at a density of 250,000 cells/well in a 12-well plate in 1 mL of in the appropriate media, in duplicates. The next day cells were treated with AMG 900 or taxol over a 10-point concentration range with a final DMSO concentration of 0.1% in taxol-free media. After 24 hours, cells were harvested with 1× trypsin-EDTA and transferred to PCR tubes. Cells were centrifuged at 2000 rpm for 4 minutes and the supernatant was aspirated. Cells were fixed in 200 μL of ice cold 90% methanol and stored at −20° C. for at least 24 hours. Fixed cells were centrifuged at 2000 rpm for 4 minutes to remove 90% methanol. Cells were washed with wash buffer and stained with 200 μL of propidium iodide (PI) for 30 minutes at 4° C. in the dark. An additional 400 μL of PI was added before data acquisition. Data was acquired and analyzed by flow cytometry (LSRII). A threshold gate was applied according to +4N (same as ≧4N) DNA content based on DMSO control and low/high drug-treated groups. The data was represented as percentage of control for +4N DNA content positive populations. The +4N DNA content cellular EC50 values were assigned using 4-parameter equation. […] Flow cytometric-based cell cycle analysis was performed to measure the percentage of ≧4N DNA content or SubG1 DNA content positive cells. The dose-response curves for AMG 900 represent the drug concentration plotted against the percentage of ≧4N DNA content positive cells. The dose-response curves for taxol represent the drug concentration plotted against the percentage of SubG1 DNA content positive cells. The EC50 values were calculated by 4-parameter fit model.
(In general: A flow cytometer gives signals particle by particle.)

In the next assay the test system is MDA-MB-231-Taxol-r. Briefly: Cell cycle DNA content assay (flow cytometry). Type of assay: cell-based. The following applies: Homo sapiens, 24 h, Breast, Paclitaxel-selected, read-out: EC50 @ 24 hours, ≧4N DNA content. How it is done:
as §2

Assay [4] has as its system MDR tumor cell lines expressing either P-gp or BCRP. The experiment in a line: p-histone H3 / polyploidy in MDR tumor cell lines (summary). In kind it is cell-based. The settings on record: Homo sapiens; all cell lines tested irrespective of P-gp or BCRP status; read-out: IC50 or EC50 values (p-histone H3 inhibition or polyploidy). As to the method:
as §1
(§3) Tumor cells were treated with AMG 900, AZD1152, MK-0457, or PHA-739358 (range concentration varied based on potency) for 24 hours and processed for cell-cycle analysis (DNA staining only) as previously described (1). Cells were analyzed on a LSRII flow cytometer using BD FACS Diva software. The concentration-response curves and corresponding EC50 values were calculated using the percentage of cells with ≧4N DNA content versus the DMSO control.

The test system of a further assay is SNU499. Briefly: Cellular EC50, additional cell lines (Table 6-B). The settings on record: Homo sapiens, Liver, P-gp+. In kind it is cell-based. How it is done:
as §1, §3

For the next assay, the system named is 769P. Briefly: Cellular EC50, additional cell lines (Table 6-B). The settings on record: Homo sapiens, Kidney, P-gp+. In kind it is cell-based. How it is done:
as §1, §3

SMILES strings stand for the structures. pEC50, pIC50: −log10 of the molar value.

Take `Cc1csc(-c2nnc(Nc3ccc(Oc4ncccc4-c4ccnc(N)n4)cc3)c3ccccc23)c1` [AMG 900, N-(4-((3-(2-amino-4-pyrimidinyl)-2-pyridinyl)oxy)phenyl)-4-(4-methyl-2-thienyl)-1-phthalazinamine]: the pEC50 was 8.70 in [1] (MES-SA Dx5*, Uterine, P-gp+, read-out: Cellular EC50); 8.52 in assay [2] (NCI-H460-PTX*, Lung, P-gp+, read-out: Cellular EC50); 8.52 in assay [3] (MDA-MB-231-PTX*, Breast, P-gp+, read-out: Cellular EC50); 9.00 with MDA-MB-231; 9.00 in the assay on MDA-MB-231-Taxol-r; 8.70 in the assay with SNU499. The compound also had a pEC50 in the assay on 769P of 8.40. The negative logarithm of the IC50 (pIC50) was 8.70 in assay [1] (MES-SA-Dx5 doxorubicin resistant, P-gp +); 8.70 in the assay with MDA-MB-231 parental; 8.52 in [2] (NCI-H460 PTX paclitaxel resistant, P-gp +); 8.52 in [3] (MDA-MB-231 PTX paclitaxel resistant, P-gp +); 8.52 in the assay on NCI-H460 parental; 8.52 in the assay on MES-SA parental. In addition, the negative logarithm of the IC50 (pIC50) in assay [4] is 8.52 to 8.70.

Broadly, the pEC50 is the negative decadic logarithm of the EC50, by convention in mol/L. As a reminder, the pIC50 is −log10 of the IC50, conventionally taken in molar units.

The record behind these values is patent publication US20120028917A1, “Use Of N-(4-((3-(2-Amino-4-Pyrimidinyl)-2-Pyridinyl)Oxy)Phenyl)-4-(4-Methyl-2-Thienyl)-1-Phthalazinamine In The Treatment Of Antimitotic Agent Resistant Cancer” (Amgen Inc., priority 2009, published 2012).
